Results taken from the supplement of paper PMC10307832.

How the values were obtained:
Assay in all cases: relative viability (nuclei count vs DMSO), 5 days (fraction); higher = more cells survive
[1] = compound: C[C@@]1(C(=O)Nc2ccc(F)nc2)CCCN1c1nc(Nc2cc(C3CC3)n[nH]2)c2cccn2n1 + CS(=O)(=O)N1CCN(Cc2cc3nc(-c4cccc5[nH]ncc45)nc(N4CCOCC4)c3s2)CC1 [Pictilisib] (partner 1 µM)
Summary of the method: (§1)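 Lung cancer cell lines in 1536-well plates got either a single drug or a fixed anchor-drug dose together with five library-drug doses (not always all listed) in √10 steps, by pin tool, on the day after seeding. Nuclei were counted after 5 days, and relative viability is the treated-to-vehicle ratio of nuclei counts. Values are medians of duplicate plates.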

[2] = compound: C[C@@]1(C(=O)Nc2ccc(F)nc2)CCCN1c1nc(Nc2cc(C3CC3)n[nH]2)c2cccn2n1 + CC(=O)c1c(C)c2cnc(Nc3ccc(N4CCNCC4)cn3)nc2n(C2CCCC2)c1=O [Palbociclib] (partner 0.5 µM)
Summary of the method: as §1

[3] = compound: C[C@@]1(C(=O)Nc2ccc(F)nc2)CCCN1c1nc(Nc2cc(C3CC3)n[nH]2)c2cccn2n1 + O=C(c1cc(Cc2n[nH]c(=O)c3ccccc23)ccc1F)N1CCN(C(=O)C2CC2)CC1 [Olaparib] (partner 8 µM)
Summary of the method: as §1

Motesanib + Palbociclib = compound: CC1(C)CNc2cc(NC(=O)c3cccnc3NCc3ccncc3)ccc21 [Motesanib] + CC(=O)c1c(C)c2cnc(Nc3ccc(N4CCNCC4)cn3)nc2n(C2CCCC2)c1=O [Palbociclib] (partner 0.5 µM)
Summary of the method: as §1

Row | Cell Line | relative viability ([1]; first compound 0.04 µM) | relative viability ([1]; first compound 0.1265 µM) | relative viability ([1]; first compound 0.4 µM) | relative viability ([1]; first compound 1.265 µM) | relative viability ([2]; first compound 0.04 µM) | relative viability ([2]; first compound 0.1265 µM) | relative viability ([2]; first compound 0.4 µM) | relative viability ([2]; first compound 1.265 µM) | relative viability ([3]; first compound 0.04 µM) | relative viability ([3]; first compound 0.1265 µM) | relative viability ([3]; first compound 0.4 µM) | relative viability ([3]; first compound 1.265 µM) | relative viability (Motesanib + Palbociclib; first compound 0.01 µM) | relative viability (Motesanib + Palbociclib; first compound 0.03162 µM) | relative viability (Motesanib + Palbociclib; first compound 0.1 µM) | relative viability (Motesanib + Palbociclib; first compound 0.3162 µM) | relative viability (Motesanib + Palbociclib; first compound 1 µM)
1 | LC-2-ad | 0.248 | 0.271 | 0.272 | 0.206 | 0.421 | 0.396 | 0.384 | 0.347 | 0.676 | 0.664 | 0.581 | 0.492 | 0.487 | 0.514 | 0.556 | 0.49 | 0.5
2 | LCLC-97TM1 | 0.139 | 0.151 | 0.159 | 0.136 | 0.0888 | 0.108 | 0.0814 | 0.145 | 0.142 | 0.133 | 0.1 | 0.229 | 0.188 | 0.216 | 0.229 | 0.32 | 0.261
3 | LCLC-103H | 0.501 | 0.497 | 0.366 | 0.441 | 0.471 | 0.452 | 0.48 | 0.465 | 0.716 | 0.655 | 0.518 | 0.762 | 0.505 | 0.469 | 0.525 | 0.555 | 0.513
4 | LK-2 | 0.574 | 0.565 | 0.569 | 0.523 | 0.381 | 0.287 | – | 0.41 | 0.38 | 0.287 | 0.29 | 0.35 | 0.784 | 0.659 | 0.537 | 0.667 | 0.708
5 | LOU-NH91 | 0.492 | 0.478 | 0.452 | 0.448 | 0.528 | 0.471 | 0.546 | 0.513 | 0.932 | 0.945 | 0.828 | 0.908 | 0.536 | 0.463 | 0.539 | 0.58 | 0.553
6 | LU99A | 0.233 | 0.217 | 0.225 | 0.163 | 0.273 | 0.208 | 0.173 | 0.26 | 0.292 | 0.227 | 0.231 | 0.276 | 0.412 | 0.489 | 0.435 | 0.334 | 0.417
7 | LXF-289 | 0.739 | 0.657 | 0.567 | 0.628 | 0.644 | 0.541 | 0.62 | 0.661 | 1.07 | 1.1 | 0.933 | 1.07 | 0.659 | 0.6 | 0.563 | 0.656 | 0.585
8 | NCI-H23 | 0.583 | 0.371 | 0.396 | 0.342 | 0.386 | 0.267 | 0.243 | 0.305 | 0.252 | 0.227 | 0.225 | 0.21 | 0.482 | 0.491 | 0.456 | 0.604 | 0.467
9 | NCI-H322M | 0.479 | 0.376 | 0.371 | 0.507 | 0.393 | 0.362 | 0.374 | 0.45 | 0.473 | 0.552 | 0.596 | 0.664 | 0.486 | 0.439 | 0.48 | 0.508 | 0.466
